Results as given in patent EP2657234B1, “OPTICALLY-ACTIVE DIAZABICYCLOOCTANE DERIVATIVE AND METHOD FOR MANUFACTURING SAME” (Meiji Seika Pharma Co., Ltd., priority 2010, dated 2012).
Where a name gives a salt, the structure may show the parent alone.

Legend:
AmpC β-lactamase = molecular target: T1, AmpC β-lactamase (Pseudomonas aeruginosa, UniProt P24735); format: biochemical; conditions: result in words
T1 construct: a DNA for encoding an AmpC β-lactamase domain excluding a signal peptide was amplified with PCR; made in house; host or cells: E. coli BL21

[1] = tested on: P. aeruginosa PAO1 variant, which constitutively expresses AmpC; assay: Combinatorial effect: MIC of piperacillin (PIPC) by agar plate dilution (CLSI) with test compound; format: cell-based; conditions: for MIC: Pseudomonas aeruginosa, PAO1; for effect of the compound in combination with an antibiotic: result in words
Experimental: The biological activity of the above-mentioned compounds of formulae (H) and (s) can be measured as follows. Specifically, an enzyme inhibitory activity (IC50 value) against AmpC enzyme which is a class C β-lactamase was determined using nitrocephin as a substrate to check whether or not the compounds had the inhibitory activity and compare the activities of them. Further, using constitutive AmpC producing Pseudomonas aeruginosa, a combined antimicrobial activity (MIC) was measured when using Piperacillin (PIPC) as an antibiotic and the compound of formula (H) or (s) in combination to check whether or not the antimicrobial activity of PIPC could be restored.
The combinatorial effect of the test compound with a β-lactam agent against bacteria was evaluated using AmpC constitutive expression strain selected from P. aeruginosa PAO1 through agent exposure. Using piperacillin (PIPC, Sigma-Aldrich) as a β-lactam agent, measurement was conducted by agar plate dilution process in which minimal inhibitory concentration (MIC) of PIPC is based on Clinical and Laboratory Standards Institute (CLSI process). That is, an agara plate containing 4 µg/mL (final concentration) of test compound and PIPC at each concentration in Mueller-Hinton agar (Becton, Dickinson and Company) was made, and bacteria cultured overnight in cation-adjusted Muller-Hinton broth (Becton, Dickinson and Company) were adjusted in the same medium so as to have 10^4 CFU/spot and inoculated on a plate containing an agent. This plate containing an agent was cultured overnight at 35 °C, and the minimum agent concentration in which no growth of bacteria is observed was determined to be MIC.

T1 sequence (P24735 27-397): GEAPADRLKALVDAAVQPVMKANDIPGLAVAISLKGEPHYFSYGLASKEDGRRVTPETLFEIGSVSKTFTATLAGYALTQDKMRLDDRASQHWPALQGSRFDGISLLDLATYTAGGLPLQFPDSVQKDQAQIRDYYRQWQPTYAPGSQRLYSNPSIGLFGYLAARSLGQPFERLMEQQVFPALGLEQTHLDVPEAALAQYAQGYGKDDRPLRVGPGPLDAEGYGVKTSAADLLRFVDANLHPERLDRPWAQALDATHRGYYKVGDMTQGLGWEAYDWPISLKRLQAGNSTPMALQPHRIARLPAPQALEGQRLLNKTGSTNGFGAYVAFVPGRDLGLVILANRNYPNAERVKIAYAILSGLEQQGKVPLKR

## NC(=O)C1CCC2CN1C(=O)N2OS(=O)(=O)O [Example 23, (2S,5R)-1,6-Diazabicyclo[3.2.1]octane-2-carboxamide, 7-oxo-6-(sulfoxy)-monosodium salt]
AmpC β-lactamase
  β-lactamase enzyme inhibitory activity: exhibited the activities
[1]
  MIC: 4 µg/mL
  effect of the compound in combination with an antibiotic: exhibited the activities

## NC(=O)[C@H]1CC[C@H]2CN1C(=O)N2OS(=O)(=O)O [Example 24, (2R,5S)-1,6-Diazabicyclo[3.2.1]octane-2-carboxamide, 7-oxo-6-(sulfoxy)-monosodium salt]
AmpC β-lactamase
  β-lactamase enzyme inhibitory activity: exhibited no activity
[1]
  MIC: 64 µg/mL
  effect of the compound in combination with an antibiotic: exhibited no activity

## C[C@]1(Cn2ccnn2)[C@H](C(=O)O)N2C(=O)C[C@H]2S1(=O)=O [TAZ, Tazobactam, reference compound]
[1]
  MIC: 64 µg/mL
